# Source: article PMC6805867, “Amphiphilic Triazine Polymer Derivatives as Antibacterial And Anti-atopic Agents in Mice Model” (Scientific Reports, 2019)
# Experiments:
# [1] = system: inflammatory cytokine expression in dorsal skin tissue; experiment: DNCB-induced AD model, cytokine mRNA expression by real-time PCR; assay type: in vivo, BALB/c mice; details: AD-like skin lesions, n = 8
# Experimental: (§1) As described in our previous article, the 7-week-old female BALB/c mice were divided into seven groups (n = 8 per group): Control (Con) group, TZP3 200 μg/mL (TZP3) group, and TZP5 200 μg/mL (TZP5) group, DNCB-sensitized only (AD) group, DNCB-sensitized + TZP3 200 μg/mL (AD + TZP3) group, DNCB-sensitized + TZP5 200 μg/mL (AD + TZP5) group, DNCB-sensitized + Dermatop (Sanofi, Korea) 0.25% (AD + Dermatop) group. Dermatop was used as a positive control treatment. For the first induction of AD in the BALB/c mice, the backs of the mice were shaved and challenged with 200 μL of 1% 2,4-dinitrochlorobenzene(DNCB) in acetone/olive oil (3:1) one time (day−4). After 4 days from the induction, 0.5% DNCB was painted onto the backs of the mice every two days (day 2, 4, 6, 8, 10, 12, 14, 16 and 18). Concentrations of 200 μg/mL TZP3 or TZP5 in 20 μL of PBS were applied to the dorsal skin once daily for 18 days.
# For the reverse transcription (RT) - polymerase chain reaction (PCR), the total cellular RNA was isolated from the dorsal skin tissue of each treatment group using TRIzol according to the manufacturer’s protocol. The first-strand complementary DNA (cDNA) was synthesized using Superscript II reverse transcriptase (Invitrogen). The conditions for RT-PCR were similar ones that have been previously described in related studies. Quantitative real-time PCR was carried out using a Thermal Cycler Dice TP850 (Takarabio Inc., Shiga, Japan) according to the manufacturer’s protocol. Briefly, 2 μL of cDNA (100 ng), 1 μL of sense and antisense primer solution (0.4 µM), 12.5 μL of SYBR Premix Ex Taq (Takarabio Inc.), and 9.5 μL of dH2O were mixed to obtain a final 25-μL reaction mixture in each reaction tube. The amplification conditions were as follows: 10 s at 95 °C, 40 cycles of 5 s at 95 °C and 30 s at 60 °C, 15 s at 95 °C, 30 s at 60 °C, and 15 s at 95 °C. The mRNA levels of the target genes relative to that of GAPDH were normalized as follows: relative mRNA expression = 2^-(ΔCt of target gene−ΔCt of GAPDH), where Ct is the threshold cycle value. In each sample, the expression level of the analyzed gene was normalized to that of GAPDH and presented as a relative mRNA level.
# trypsin = experiment: Protease stability, radial diffusion assay after tryptic digestion; assay type: in vitro ADME; details: trypsin 0.2 μg/mL in PBS, 37 °C (24 h, 4 h elsewhere in the source), clearance zones against E.coli and S.aureus
# Experimental: The protease stability of triazine based polymers (TZP3 and TZP5) was performed by the radial diffusion assay as described previously. Briefly, a bacteria suspension (2×10^6 CFU/mL in LB) was mixed with 0.7% agarose. This mixture was poured into a 10-cm petri dish, and it dispersed rapidly. […] The reaction was stopped by freezing with liquid nitrogen, after which 10 μL aliquots were placed in each circle paper, put on the agarose plates, and then incubated at 37 °C overnight. The diameters of the bacterial clearance zones surrounding the circle paper were measured for the quantitation of inhibitory activities.
# [2] = system: AD-like skin lesion in BALB/c mice; experiment: DNCB-induced AD-like skin lesion model, dermatitis score; assay type: in vivo; details: 200 μg/mL in 20 μL PBS on dorsal skin once daily for 18 days, versus AD mice, n = 8
# Experimental: as §1
# The severity of dermatitis on the dorsal skin lesions was evaluated three times per week, according to a slight modification of the criteria described previously. The development of (1) erythema/hemorrhage, (2) scarring/dryness, (3) edema, and (4) excoriation/erosion was scored as 0 (none), 1 (mild), 2 (moderate), or 3 (severe). The sum of the individual scores was defined as the dermatitis score.
# [3] = system: serum total IgE and IgG2a; experiment: DNCB-induced AD model, serum immunoglobulins by ELISA; assay type: in vivo, BALB/c mice; details: versus AD-induced mice
# Experimental: as §1
# Blood was collected from each experimental group via cardiac puncture and was centrifuged at 3000 rpm and 4 °C for 20 min to obtain the serum. The levels of IgE, IgG2a were measured with an enzyme-linked immunosorbent assay kit (Bethyl Laboratories, Montgomery, TX, USA), following the manufacturer’s instructions.
# [4] = system: selected bacterial strains; experiment: Geometric mean of MIC values over the bacterial strains; assay type: cell-based; details: geometric mean of MIC values from selected six bacterial strains (footnote b)
# Experimental: The bacterial strains employed in the experiment were Escherichia coli (KCTC 1682), Pseudomonas aeruginosa (KCTC 1637), Bacillus subtilis (KCTC 3068), Staphylococcus aureus (KCTC 1621), three methicillin-resistant Staphylococcus aureus (CCARM 3089, 3090 and 3095), two multidrug-resistant Pseudomonas aeruginosa (CCARM 2095 and 2109) and vancomycin-resistant Enterococcus faecium (ATCC 51559). The antimicrobial activities of polymers were determined by the broth microdilution method, and the procedures were used as previously reported. Briefly, bacteria grown to mid-logarithmic phase in LB broth were diluted to 2 × 10^6 CFU/mL in 1% peptone and added to serial two-fold dilutions of different polymers ranging from 1 to 64 μg/mL. The plates were incubated in a shaking incubator at 37 °C for 18–22 h. The minimum inhibitory concentration (MIC) was determined by confirming the absence of bacterial growth both visually and spectrophotometrically by OD600 readings taken by a microplate ELISA reader (Molecular Devices, Sunnyvale, CA, USA). All measurements were performed three times.
# [5] = system: dorsal skin of AD-induced BALB/c mice; experiment: DNCB-induced AD model, histological observations (H&E, toluidine blue); assay type: in vivo; details: versus AD mice; for decrease in both epidermal and dermal thickness: 200 μg/mL topical daily for 18 days, H&E staining; for infiltration of mast cells in the skin lesions: topical application, toluidine blue staining
# Experimental: as §1
# As described in our previous article, the skin tissues of the mice were […] in 10% neutral buffered formalin (NBF) for 24 h and embedded in white paraffin. Serial paraffin‐sections with 5 µm thickness, were prepared and stained with hematoxylin-eosin (H&E) or toluidine blue. The thickness of the epidermis and dermis was measured under a microscope. The number of mast cells stained by toluidine blue in the upper dermis in a field of 0.25 mm × 0.25 mm (0.0625 mm^2) was counted under the microscope. The cells in five fields (0.3125 mm^2 in total) of the upper dermis were counted, and an estimate of the number of cells per 1 mm^2 was made for each mouse specimen.
Compound,IL-4 suppression (mRNA expression) [1],inhibition of IFN-γ mRNA expression [1],inhibition of IL-1β mRNA expression [1],inhibition of IL-13 mRNA expression [1],inhibition of IL-17 mRNA expression [1],inhibition of TNF-α mRNA expression [1],suppression of IL-6 mRNA expression [1],suppression of IL-10 mRNA expression [1],antibacterial activity after incubation with trypsin (trypsin),dermatitis score [2],serum level of total IgE [3],serum level of total IgG2a [3],GM (geometric mean of MIC values) [4],decrease in both epidermal and dermal thickness [5],infiltration of mast cells in the skin lesions [5]
NCCCN(CCCN)c1nc(N)nc(NCCNc2nc(Cl)nc(N(Cc3ccccc3)Cc3ccccc3)n2)n1 [TZP3],around 35%,around 60%,more than 70%,more than 70%,60%,approximately 55%,around 60%,around 35%,did not lose any of their antibacterial effects,significantly decreased score,significantly reduced,significantly reduced,4.5 [7.6] μg/mL,more than 50%,significantly suppressed
NCCCN(CCCN)c1nc(Cl)nc(NCCNc2nc(NCCNc3nc(N)nc(NCCC(c4ccccc4)c4ccccc4)n3)nc(N(CCCN)CCCN)n2)n1 [TZP5],around 35%,around 60%,> 75%,> 75%,more than 85%,~65%,~50%,almost similar potency with the dermatop,did not lose any of their antibacterial effects,significantly decreased score,significantly reduced,significantly reduced,3.0 µg/mL,more than 50%,significantly suppressed
